Reference: ChEMBL document CHEMBL4177607, “Antibacterial constituents of the plant family Amaryllidaceae” (2017)
≈ marks a conversion by molar mass, not a printed value. Each block holds one molecule with its values, some of them ahead of it.

What was measured:
Type in all cases: functional
Escherichia coli [1] = assay: Antibacterial activity against Escherichia coli assessed as diameter of inhibition zone at 3 mg/ml; details: read-out: DIZ
Staphylococcus aureus [2] = assay: Antibacterial activity against Staphylococcus aureus assessed as diameter of inhibition zone at 3 mg/ml; details: read-out: DIZ
Rhodococcus fascians = assay: Antibacterial activity against Corynebacterium fascians assessed as diameter of inhibition zone at 10 mM after 48 to 72 hrs by paper disc method; details: Rhodococcoides fascians; read-out: DIZ
Escherichia coli [3] = assay: Antibacterial activity against Escherichia coli after 24 hrs by broth microdilution method
Pseudomonas aeruginosa = assay: Antibacterial activity against Pseudomonas aeruginosa after 24 hrs by broth microdilution method
Shigella flexneri = assay: Antibacterial activity against Shigella flexneri after 24 hrs by broth microdilution method
Flavobacterium columnare [4] = assay: Antibacterial activity against Flavobacterium columnare ALM-00-173 after 24 hrs; details: ALM-00-173, 24 h
Flavobacterium columnare [5] = assay: Antibacterial activity against Flavobacterium columnare BioMed after 24 hrs
Escherichia coli [6] = assay: Antibacterial activity against Escherichia coli incubated overnight by two-fold serial dilution method
Staphylococcus aureus [7] = assay: Antibacterial activity against Staphylococcus aureus incubated overnight by two-fold serial dilution method
Escherichia coli [8] = assay: Antibacterial activity against Escherichia coli assessed as diameter of inhibition zone at 1 mg/ml; details: read-out: DIZ
Staphylococcus aureus [9] = assay: Antibacterial activity against Staphylococcus aureus assessed as diameter of inhibition zone at 1 mg/ml; details: read-out: DIZ
Edwardsiella ictaluri = assay: Antibacterial activity against Edwardsiella ictaluri after 24 hrs
Staphylococcus aureus [10] = assay: Antibacterial activity against Staphylococcus aureus
Escherichia coli [11] = assay: Antibacterial activity against Escherichia coli

Compound: COC1=C[C@@H]2CCN3Cc4cc5c(cc4[C@@H]([C@H]23)[C@@H]1O)OCO5 [AMARBELLISINE]
zone of inhibition at 3000 µg/mL (Escherichia coli [1]): 22 mm
zone of inhibition at 3000 µg/mL (Staphylococcus aureus [2]): 22 mm

Compound: Oc1ccc2c3c1c1cc4c(cc1c[n+]3CC2)OCO4
zone of inhibition at 10000 µM (Rhodococcus fascians): 10 mm

MIC (Escherichia coli [3]): 16 µg/mL (≈ 50.6 µM)
MIC (Pseudomonas aeruginosa): 32 µg/mL (≈ 101 µM)
MIC (Shigella flexneri): 4 µg/mL (≈ 12.6 µM)
Compound: COc1cc2c(c(O)c1C)C(=O)C(O)C(c1ccc(O)cc1)O2 (stereo not given)

MIC (Flavobacterium columnare [4]): 10 µM
MIC (Flavobacterium columnare [5]): 100 µM
Compound: [O-]c1ccc2c3c1c1cc4c(cc1c[n+]3CC2)OCO4

MIC (Escherichia coli [3]): 2 µg/mL (≈ 4.54 µM)
MIC (Pseudomonas aeruginosa): 4 µg/mL (≈ 9.08 µM)
MIC (Shigella flexneri): 2 µg/mL (≈ 4.54 µM)
Compound: CCCC(=O)Oc1ccc([C@@H]2CC(=O)c3c(O)c(C)c(OC(=O)CCC)c(C)c3O2)cc1

Compound: CN(C)[C@@H]1C(O)=C(C(N)=O)C(=O)[C@@]2(O)C(O)=C3C(=O)c4c(O)cccc4[C@@](C)(O)[C@H]3C[C@@H]12 [TETRACYCLINE]
MIC (Escherichia coli [6]): 2 µg/mL (≈ 4.5 µM)
MIC (Staphylococcus aureus [7]): 0.5 µg/mL (≈ 1.13 µM)

MIC (Flavobacterium columnare [4]): 30.4 µg/mL
MIC (Flavobacterium columnare [5]): 55.2 µg/mL
Compound: Cc1cccc(C(=O)O[C@H]2[C@H]3c4cc5c(cc4CN4CCC(=C[C@@H]2OC(=O)c2cccc(C)c2C)[C@H]34)OCO5)c1C

Compound: O[C@@H]1C=C[C@]23c4cc5c(cc4C[N@@](C[C@@H]2O)[C@H]3C1)OCO5
zone of inhibition at 3000 µg/mL (Staphylococcus aureus [2]): 17 mm

MIC (Escherichia coli [3]): 4 µg/mL (≈ 10.8 µM)
MIC (Pseudomonas aeruginosa): 8 µg/mL (≈ 21.6 µM)
MIC (Shigella flexneri): 2 µg/mL (≈ 5.4 µM)
Compound: CCCC(=O)Oc1ccc([C@@H]2CC(=O)c3c(O)c(C)c(O)c(C)c3O2)cc1

Compound: COc1cc2c(cc1OC)[C@@H](O)O[C@@H]1CC=C3CCN(C)[C@H]3[C@H]21
zone of inhibition at 1000 µg/mL (Escherichia coli [8]): 15 mm
zone of inhibition at 1000 µg/mL (Staphylococcus aureus [9]): 14 mm

MIC (Flavobacterium columnare [4]): 100 µM
MIC (Flavobacterium columnare [5]): 10 µM
Compound: COc1cc2c[n+]3c4c(cc([O-])cc4c2cc1O)CC3

MIC (Flavobacterium columnare [4]): 23.2 µg/mL
MIC (Flavobacterium columnare [5]): 42.1 µg/mL
Compound: Cc1ccccc1NC(=O)O[C@H]1C=C2CCN3Cc4cc5c(cc4[C@H]([C@@H]1O)[C@@H]23)OCO5

MIC (Edwardsiella ictaluri): > 33 µg/mL
MIC (Staphylococcus aureus [10]): > 33 µg/mL
Compound: CC(=O)O[C@H]1[C@H]2c3cc4c(cc3CN3CCC(=C[C@@H]1O)[C@H]23)OCO4

Compound: COc1ccc2c3c1O[C@H]1C[C@@H](O)C=C[C@@]31CCN(C)C2 [GALANTAMINE]
MIC (Escherichia coli [6]): 2050 µg/mL (≈ 7130 µM)
MIC (Staphylococcus aureus [7]): 2050 µg/mL (≈ 7130 µM)

MIC (Flavobacterium columnare [4]): 5.2 µg/mL
MIC (Flavobacterium columnare [5]): 28.8 µg/mL
Compound: Cc1cccc(C(=O)O[C@H]2[C@H]3c4cc5c(cc4CN4CCC(=C[C@@H]2OC(=O)c2cccc(C)c2)[C@H]34)OCO5)c1

Compound: c1cc2c3c(c1)c1cc4c(cc1c[n+]3CC2)OCO4 [ANHYDROLYCORINIUM CHLORIDE]
zone of inhibition at 10000 µM (Rhodococcus fascians): 30 mm

MIC (Escherichia coli [3]): 32 µg/mL (≈ 102 µM)
MIC (Pseudomonas aeruginosa): 64 µg/mL (≈ 205 µM)
MIC (Shigella flexneri): 8 µg/mL (≈ 25.6 µM)
Compound: COc1c(C)c(O)c2c(=O)cc(-c3ccc(O)cc3)oc2c1C [SIDEROXYLIN]

MIC (Flavobacterium columnare [4]): 5.6 µg/mL
MIC (Flavobacterium columnare [5]): 5.6 µg/mL
Compound: O=C(O[C@H]1[C@H]2c3cc4c(cc3CN3CCC(=C[C@@H]1OC(=O)c1cccc(Cl)c1)[C@H]23)OCO4)c1cccc(Cl)c1

Compound: COc1cc2c(cc1OC)[C@H]1[C@H]3C(=CC[C@H]1O[C@@H]2OC)CCN3C
zone of inhibition at 1000 µg/mL (Escherichia coli [8]): 14 mm
zone of inhibition at 1000 µg/mL (Staphylococcus aureus [9]): 14 mm

MIC (Flavobacterium columnare [4]): 5.5 µg/mL
MIC (Flavobacterium columnare [5]): 5.5 µg/mL
Compound: Cc1ccccc1NC(=O)O[C@H]1[C@H]2c3cc4c(cc3CN3CCC(=C[C@@H]1OC(=O)Nc1ccccc1C)[C@H]23)OCO4

Compound: O=C1N[C@H]2[C@H](O)[C@H](O)[C@@H](O)C[C@@H]2c2cc3c(c(O)c21)OCO3
MIC (Escherichia coli [3]): 4 µg/mL (≈ 12.9 µM)
MIC (Pseudomonas aeruginosa): 16 µg/mL (≈ 51.7 µM)
MIC (Shigella flexneri): 4 µg/mL (≈ 12.9 µM)

MIC (Edwardsiella ictaluri): > 37 µg/mL
MIC (Flavobacterium columnare [4]): > 37 µg/mL
MIC (Flavobacterium columnare [5]): > 37 µg/mL
MIC (Staphylococcus aureus [10]): > 37 µg/mL
Compound: CC(=O)O[C@H]1[C@H]2c3cc4c(cc3CN3CC[C@H](C[C@@H]1OC(C)=O)[C@H]23)OCO4

Compound: O[C@@H]1C=C[C@]23CCN(Cc4cc5c(cc42)OCO5)[C@H]3C1 [VITTATINE]
zone of inhibition at 3000 µg/mL (Escherichia coli [1]): 22 mm
zone of inhibition at 3000 µg/mL (Staphylococcus aureus [2]): 19 mm

MIC (Edwardsiella ictaluri): > 37 µg/mL
MIC (Flavobacterium columnare [4]): 4 µg/mL
MIC (Flavobacterium columnare [5]): 37 µg/mL
MIC (Staphylococcus aureus [10]): > 37 µg/mL
Compound: CC(=O)O[C@H]1[C@H]2c3cc4c(cc3CN3CCC(=C[C@@H]1OC(C)=O)[C@H]23)OCO4

MIC (Edwardsiella ictaluri): > 287 µg/mL
MIC (Flavobacterium columnare [4]): 100 µM
MIC (Flavobacterium columnare [5]): 100 µM
MIC (Staphylococcus aureus [10]): > 287 µg/mL
Compound: O[C@H]1[C@H]2c3cc4c(cc3CN3CCC(=C[C@@H]1O)[C@H]23)OCO4 [LYCORINE]
zone of inhibition at 1000 µg/mL (Escherichia coli [8]): 13 to 25 mm
zone of inhibition at 10000 µM (Rhodococcus fascians): 0 mm
zone of inhibition at 1000 µg/mL (Staphylococcus aureus [9]): 15 to 28 mm

MIC (Escherichia coli [11]): 2050 µg/mL (≈ 7550 µM)
Compound: O[C@@H]1CC=C2CCN3Cc4cc5c(cc4[C@H]1[C@@H]23)OCO5 [CARANINE]

MIC (Escherichia coli [3]): 16 µg/mL (≈ 37.5 µM)
MIC (Pseudomonas aeruginosa): 32 µg/mL (≈ 75 µM)
MIC (Shigella flexneri): 16 µg/mL (≈ 37.5 µM)
Compound: CCCCCCCC(=O)Oc1c(C)c(O)c2c(c1C)O[C@H](c1ccc(O)cc1)CC2=O
